Test results taken from patent US20200397001A1, “CONTROL OF PESTS OF SOYBEAN PLANTS WITH MESOIONIC COMPOUNDS” (BASF SE, priority 2018, published 2020).

Experiments:
Type in all cases: in vivo
Halyomorpha halys = assay: Brown marmorated stink bug spray test on soybean seeds in cups; conditions: 300 ppm, adults on soybean seeds, 5 days after treatment
Procedure: Halyomorpha halys (Brown Marmorated Stink Bug)
For evaluating control of Halyomorpha halys the active compound is dissolved at the desired concentration in a mixture of 1:1 (vol:vol) distilled water:acetone with 0.005% (v/v) of Tween 20 added as surfactant. Soybean seeds are placed in a small petri dish inside a plastic cup 10 adults (5 females and 5 males) are introduced into each cup. Using an airbrush sprayer, 1 mL solution was sprayed directly inside the cups with bean pods. After drying, a water source (wet cotton in a small petri dish) is placed in each cup, and the cups closed with ventilated cover. All cups held under constant temperature of 20° C., 16L:8D photoperiod. Live insects are counted at 5 days after treatment.

Euschistus heros = assay: Brown stink bug test on sprayed soybean seedlings of Intacta and BMX-Potencia; conditions: 100 ppm, 6 days after application; for efficacy on soybean with Bacillus thuringiensis toxin trait (INTACTA) versus soybean without the trait (BMX-POTENCIA): sprayed seedlings; for mortality (corrected according to Abbott): sprayed soybean seedlings of Intacta and BMX-Potencia, adults
Procedure: Brown Stink Bug (Euschistus heros)
The active compound is dissolved at the desired concentration in a mixture of 1:1 (vol:vol) distilled water:acetone. Soybean seedlings of Intacta and BMX-Potencia with one pair of true leaves were sprayed 10 with 2 ml solution using an airbrush. After dry, the plants in small pots were placed inside a transparent plastic cage and infested with 10 adults adult stage individuals. Treated cups were kept at about 25° C. Percent mortality was recorded after 6 days after application. […] Entomal., 18 (1925) 265-267.

Nezara viridula = assay: Green soldier stink bug soil drench test on lima bean plants; conditions: 250 g ai/ha, 2nd instar nymphs infested 3 days after treatment, read 4 days after infestation
Procedure: Green Soldier Stink Bug (Nezara viridula)
Lima Bean (Phaseolus lunatus, ‘Henderson Bush,’ Lot #—VR06650) plants were transplanted at the two true-leaf stage into 25.8 cm2 pots filled with sifted (No. 10 sieve). Pots were held in the greenhouse and watered daily until treatment. Three days after transplant, the compounds were dissolved in acetone and then diluted with water for a final concentration of 50% acetone. Treatments were applied as a drench in 1 ml solution per plant. Plants were held in an environmental chamber (25±2° C., 24 L) and watered as needed for the duration of the test.
Three days after treatment, plants were infested with five 2nd instar nymphs. Plants were 15 covered with organza fabric bags to prevent escape. Four days after infestation, the number of live nymphs on each plant was recorded, and means were calculated for each treatment. The percent control was calculated as the percent mortality relative to the solvent blank.

| Compound | mortality in comparison with untreated controls (Halyomorpha halys) | efficacy on soybean with Bacillus thuringiensis toxin trait (INTACTA) versus soybean without the trait (BMX-POTENCIA) (Euschistus heros) | mortality (corrected according to Abbott) (Euschistus heros) | mortality in comparison with untreated controls (percent control relative to the solvent blank) (Nezara viridula) |
| --- | --- | --- | --- | --- |
| Cc1cccc(-c2c([O-])[n+]3ccccc3n(CCC#N)c2=O)c1 [Compound C-6] | at least 75% |  |  |  |
| N#CCCn1c(=O)c(-c2cc(C3CC3)cc(C(F)(F)F)c2)c([O-])[n+]2ccccc12 [Compound C-8] |  | higher efficacy | 68% | at least 75% |
| N#CCCn1c(=O)c(-c2ccc(F)cc2)c([O-])[n+]2ccccc12 [Compound C-9] |  | higher efficacy | 70% |  |
